# According to ChEMBL document CHEMBL1201862, “PubChem BioAssay data set” (2004):
#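 Test compounds were applied to cells in 96-well plates for 48 hours at 5 doses. GI50 is the concentration that inhibits growth by half.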 Activity calls are given as the source filed them. Cut-off read from the data, not from the text of the source: active = GI50 up to about 1.1 µM and inactive = higher.
# Assays:
# Assay in all cases: inhibition of tumour cell growth, NCI panel, 48 h
# 786-0 = system: 786-0
# A498 = system: A498
# A549 = system: A549
# ACHN = system: ACHN
# BT-549 = system: BT-549
# CCRF-CEM = system: CCRF-CEM
# COLO 205 = system: COLO 205
# DLD-1 = system: DLD-1
# DMS-114 = system: DMS-114
# DMS-273 = system: DMS-273
# DU-145 = system: DU-145
# EKVX = system: EKVX
# HCC 2998 = system: HCC 2998
# HCT-116 = system: HCT-116
# HCT-15 = system: HCT-15
# HL-60 = system: HL-60
# HOP-18 = system: HOP-18
# HOP-62 = system: HOP-62
# HOP-92 = system: HOP-92
# HT-29 = system: HT-29
# IGROV-1 = system: IGROV-1
# K562 = system: K562
# KM-20L2 = system: KM-20L2
# KM12 = system: KM12
# LOX IMVI = system: LOX IMVI
# LXFL 529 = system: LXFL 529
# M14 = system: M14
# MCF7 = system: MCF7
# MDA-MB-231 = system: MDA-MB-231
# MDA-N = system: MDA-N
# MOLT-4 = system: MOLT-4
# Malme-3M = system: Malme-3M
# NCI-H226 = system: NCI-H226
# NCI-H23 = system: NCI-H23
# NCI-H460 = system: NCI-H460
# NCI-H522 = system: NCI-H522
# NCI/ADR-RES = system: NCI/ADR-RES
# OVCAR-3 = system: OVCAR-3
# OVCAR-5 = system: OVCAR-5
# OVCAR-8 = system: OVCAR-8
# PC-3 = system: PC-3
# RPMI-8226 = system: RPMI-8226
# RXF 393 = system: RXF 393
# SF-268 = system: SF-268
# SF-295 = system: SF-295
# SF-539 = system: SF-539
# SK-MEL-28 = system: SK-MEL-28
# SK-MEL-2 = system: SK-MEL-2
# SK-MEL-5 = system: SK-MEL-5
# SK-OV-3 = system: SK-OV-3
# SN12C = system: SN12C
# SNB-19 = system: SNB-19
# SNB-75 = system: SNB-75
# SNB-78 = system: SNB-78
# SR = system: SR
# SW-620 = system: SW-620
# T47D = system: T47D
# TK-10 = system: TK-10
# U-251 = system: U-251
# UACC-62 = system: UACC-62
# UO-31 = system: UO-31
# CAKI-1 = system: CAKI-1
# Hs-578T = system: Hs-578T
# MDA-MB-435 = system: MDA-MB-435
# OVCAR-4 = system: OVCAR-4
# UACC-257 = system: UACC-257
structure (smiles),measurement,setting,value
COc1cc(C2c3cc4c(cc3[C@H](NC(=O)c3cccs3)C3COC(=O)[C@H]23)OCO4)cc(OC)c1OC (stereo not given in full),GI50,786-0,< 0.0221 µM (active)
same,GI50,A498,0.012 µM (active)
same,GI50,A549,< 0.019 µM (active)
same,GI50,ACHN,< 0.0174 µM (active)
same,GI50,BT-549,< 0.01 µM (active)
same,GI50,CCRF-CEM,< 0.0179 µM (active)
same,GI50,COLO 205,0.0109 µM (active)
same,GI50,DLD-1,0.0297 µM (active)
same,GI50,DMS-114,0.0113 µM (active)
same,GI50,DMS-273,0.0188 µM (active)
same,GI50,DU-145,< 0.01 µM (active)
same,GI50,EKVX,0.0731 µM (active)
same,GI50,HCC 2998,< 0.0181 µM (active)
same,GI50,HCT-116,< 0.0131 µM (active)
same,GI50,HCT-15,< 0.0214 µM
same,GI50,HL-60,< 0.01 µM (active)
same,GI50,HOP-18,> 100 µM (inactive)
same,GI50,HOP-62,< 0.0144 µM (active)
same,GI50,HOP-92,0.0198 µM (active)
same,GI50,HT-29,0.012 µM (active)
same,GI50,IGROV-1,0.0147 µM (active)
same,GI50,K562,< 0.0156 µM (active)
same,GI50,KM-20L2,0.0199 µM (active)
same,GI50,KM12,< 0.01 µM (active)
same,GI50,LOX IMVI,< 0.0107 µM (active)
same,GI50,LXFL 529,0.0296 µM (active)
same,GI50,M14,< 0.0197 µM (active)
same,GI50,MCF7,< 0.01 µM (active)
same,GI50,MDA-MB-231,< 0.01 µM (active)
same,GI50,MDA-N,< 0.01 µM (active)
same,GI50,MOLT-4,< 0.0149 µM (active)
same,GI50,Malme-3M,92.3 µM (inactive)
same,GI50,NCI-H226,0.668 µM (active)
same,GI50,NCI-H23,< 0.0143 µM (active)
same,GI50,NCI-H460,0.0172 µM (active)
same,GI50,NCI-H522,< 0.01 µM (active)
same,GI50,NCI/ADR-RES,0.026 µM (active)
same,GI50,OVCAR-3,0.0361 µM (active)
same,GI50,OVCAR-5,> 46.9 µM (inactive)
same,GI50,OVCAR-8,< 0.01 µM (active)
same,GI50,PC-3,< 0.01 µM (active)
same,GI50,RPMI-8226,0.0134 µM (active)
same,GI50,RXF 393,0.0133 µM (active)
same,GI50,SF-268,< 0.0195 µM (active)
same,GI50,SF-295,< 0.01 µM (active)
same,GI50,SF-539,< 0.01 µM (active)
same,GI50,SK-MEL-28,0.0708 µM (active)
same,GI50,SK-MEL-2,34.1 µM (inactive)
same,GI50,SK-MEL-5,< 0.014 µM (active)
same,GI50,SK-OV-3,0.027 µM (active)
same,GI50,SN12C,< 0.0187 µM (active)
same,GI50,SNB-19,< 0.018 µM (active)
same,GI50,SNB-75,< 0.0152 µM (active)
same,GI50,SNB-78,> 100 µM (inactive)
same,GI50,SR,0.0122 µM (active)
same,GI50,SW-620,< 0.016 µM (active)
same,GI50,T47D,46.7 µM (inactive)
same,GI50,TK-10,> 40.9 µM (inactive)
same,GI50,U-251,< 0.0148 µM (active)
same,GI50,UACC-62,< 0.0128 µM (active)
same,GI50,UO-31,0.0811 µM (active)
S=C(N/N=C(/c1ccccc1)c1ccccn1)Nc1ccccc1Cl,GI50,786-0,< 0.018 µM (active)
same,GI50,A498,1.13 µM (inactive)
same,GI50,A549,0.0946 µM (active)
same,GI50,ACHN,0.0153 µM (active)
same,GI50,BT-549,3.3 µM (inactive)
same,GI50,CAKI-1,0.209 µM (active)
same,GI50,CCRF-CEM,< 0.01 µM (active)
same,GI50,COLO 205,< 0.01 µM (active)
same,GI50,DU-145,2.31 µM (inactive)
same,GI50,EKVX,0.0785 µM (active)
same,GI50,HCC 2998,0.673 µM (active)
same,GI50,HCT-116,< 0.01 µM (active)
same,GI50,HCT-15,0.0179 µM
same,GI50,HL-60,< 0.0865 µM (active)
same,GI50,HOP-62,1.77 µM (inactive)
same,GI50,HOP-92,0.226 µM (active)
same,GI50,HT-29,< 0.0227 µM (active)
same,GI50,Hs-578T,2.49 µM (inactive)
same,GI50,IGROV-1,< 0.0105 µM (active)
same,GI50,K562,< 0.215 µM (active)
same,GI50,KM12,0.0649 µM (active)
same,GI50,LOX IMVI,0.0418 µM (active)
same,GI50,M14,< 0.0224 µM (active)
same,GI50,MCF7,< 0.01 µM (active)
same,GI50,MDA-MB-231,< 0.01 µM (active)
same,GI50,MDA-MB-435,0.265 µM (active)
same,GI50,MDA-N,0.43 µM (active)
same,GI50,MOLT-4,< 0.01 µM (active)
same,GI50,Malme-3M,0.0681 µM (active)
same,GI50,NCI-H226,0.0993 µM (active)
same,GI50,NCI-H23,< 0.0175 µM (active)
same,GI50,NCI-H460,0.101 µM (active)
same,GI50,NCI-H522,< 0.0446 µM (active)
same,GI50,NCI/ADR-RES,< 0.01 µM (active)
same,GI50,OVCAR-3,< 0.0103 µM (active)
same,GI50,OVCAR-4,0.879 µM (active)
same,GI50,OVCAR-5,0.0243 µM (active)
same,GI50,OVCAR-8,0.0299 µM (active)
same,GI50,PC-3,< 0.01 µM (active)
same,GI50,RPMI-8226,< 0.0448 µM (active)
same,GI50,RXF 393,0.124 µM (active)
same,GI50,SF-268,0.179 µM (active)
same,GI50,SF-295,0.356 µM (active)
same,GI50,SF-539,1.11 µM (active)
same,GI50,SK-MEL-28,1.92 µM (inactive)
same,GI50,SK-MEL-2,0.148 µM (active)
same,GI50,SK-MEL-5,0.121 µM (active)
same,GI50,SK-OV-3,0.0266 µM (active)
same,GI50,SN12C,0.168 µM (active)
same,GI50,SNB-19,4.95 µM (inactive)
same,GI50,SNB-75,6.64 µM (inactive)
same,GI50,SR,< 0.0189 µM (active)
same,GI50,SW-620,< 0.01 µM (active)
same,GI50,T47D,< 0.01 µM (active)
same,GI50,TK-10,0.336 µM (active)
same,GI50,U-251,0.0158 µM (active)
same,GI50,UACC-257,< 0.01 µM (active)
same,GI50,UACC-62,0.101 µM (active)
same,GI50,UO-31,0.163 µM (active)
